# Several values for one entry are separate records, joined by “and”; a condition that tells them apart may be missing. Identical values can stand only once.
# Legend:
# [1] = Metabolic stability assay in human liver microsomes; assay type: in vitro ADME; conditions: for half-life: pH 7.4, 1 mg/mL protein; for Clearance Category: ranked by CLint
# Protocol: Pretreatment of the 96-well ABgen-0765 reaction plates was the same as previously described above. Two microlitres (2 µL) of compounds (previously dissolved in DMSO) were pre-incubated with 98 µL of cofactor/buffer solution (0.1 M phosphate buffer of pH 7.4, 100 mM K3PO4, 3.3 mM MgCl2, 3.3 mM G6P, 1.3 mM NADPH, and 0.4 u/mL G6PDH) at 37 °C for 10 min. The reactions were then initiated by the addition of 100 µL of HLM solution (at final protein concentration of 1 mg/mL), after which they were stopped at pre-determined incubation times of 0, 10, 15, 30, 45 and 60 min by adding 90 µL acetonitrile containing internal LC–MS–MS standards and shaking at 180 Hz. The samples were centrifuged to sediment the protein precipitates and the supernatants were analysed by LC–MS–MS as previously described above. The integration of each analyte (the […]) and internal standard peak area was performed by the Analyst® software version 1.5.2 and used to calculate the percentage of remaining compound at each incubation time. The natural logarithm of the percentage of the remaining parent compound was plotted against the incubation time and used to calculate the half-life by the following equation:
# Half-life (T ½ min) = 0.693/k, where k is the slope of a plot of the natural log of the percentage parent compound remaining vs. time.
# The intrinsic clearance (CLint) was determined by the equation: CLint
# =Ln2/t1/2min∗volumeincubationmL/microsomalproteinmg∗45MPPGL1500ghumanliver/70kghumanbodyweightj
# Units for CLint were expressed as mL/min/mg microsomal protein and MPPGL = mg microsomal protein per gram liver.
# [2] = Quantification of compounds in mice plasma by LC-MS-MS and PK parameters after i.v. injection; assay type: in vivo; conditions: mouse, in vivo, iv, 25 mg/kg
# Protocol: (§1) Three Balb/C mice (6–8 weeks old) were intravenously injected with 25 mg/kg of strasseriolide D dissolved in 200 µL of vehicle (0.5%HPMC, 0.5% Tween 80 and 0.5% Benzyl alcohol in water). Blood samples were collected by pricking the […] on the leg of each mouse at time points 1.5 (T 1.5 h), 5 (T 5 h) and 24 h (T 24 h). From the harvested blood, 50 µL plasma were prepared for all the samples and stored at -80 °C until needed. A previously developed LC–MS–MS method (see supporting information) was used to determine the plasma concentration of strasseriolide D as described below.
# Ten millimolar (10 mM) DMSO stocks of strasseriolide D (the test compound) and strasseriolide A (used as internal standard,) were prepared. From the strasseriolide D stock, a 59.7 µM (27,000 ppb) working concentration was made in DMSO and an aliquot of this was serially diluted (½) in reconstitution solution (1:1 of acetonitrile: H2O with 0.1% formic acid) to create a six-point calibration curve in triplicate. Three different quality control (QC) concentrations of strasseriolide D at 59.7, 0.74, and 0.25 µM (i.e. 27,000 ppb, 333 ppb and 111 ppb) were also prepared in duplicate. From the strasseriolide A (internal standard) stock, a 6.2 µM (2700 ppb) working concentration was prepared in DMSO.
# Blank mouse plasma (prepared from non-injected mouse) was retrieved from the freezer (− 80 °C) and kept on ice to thaw. The sample was vortexed adequately and 15 µL aliquots transferred into 0.7 mL Eppendorf tubes after which 35 µL of Milli-Q water were added and vortexed. Triplicate sets of the diluted plasma were then respectively spiked with 2 uL of each concentration of the calibration curves of strasseriolide D. Another triplicate set of the diluted plasma was spiked with 2 µL of each concentration of the standard QC solutions. All the above samples were also spiked with 2 µL of strasseriolide A (the internal standard)). To serve as blank samples, a fresh triplicate set of diluted plasma were spiked with 4 µL of DMSO. Non-matrix samples were also prepared by spiking 100 µL aliquots of reconstitution solution with 2 µL of the standard QC solutions and 2 µL of internal standard.
# Fifteen microlitres (15 µL) plasma from the various time points of the strasseriolide D-injected mice, were respectively transferred into 0.7 mL Eppendorf tubes. To each sample, 37 µL of Milli-Q water were added, vortexed and spiked with 2 µL of strasseriolide A (internal standard). Two hundred microlitres (200 µL) of ice-cold acetonitrile were added to all of the matrix (plasma-containing) samples and centrifuged at 13,300 rpm for 15 min at 4 °C. Subsequently, 180 µL aliquots were carefully transferred (without disturbing the protein precipitate) from each tube into clean HPLC vials and evaporated to dryness in an EZ2 Genevac at room temperature. The dried samples were then reconstituted in 40 µL of reconstitution solution by vortexing. The samples were placed in an auto-sampler drawer for LC–MS–MS analysis and quantification of strasseriolide D (the test compound) in mice plasma.
# (§2) Similar sample preparation and LC–MS–MS analysis were respectively performed for mice intravenously injected with strasseriolides A and C as test compounds and mice blood samples collected at 30 min (T 30 M), 2 h (T 2 h), 6 h (T 6 h) and 24 h (T 24 h). […] For strasseriolides A, B and C as test compounds; strasseriolides C, D and B were respectively used as internal standards. After LC–MS–MS analysis, the plasma concentration of compound vs. time data was determined for each strasseriolide.
# 116 Table S2. QC table used to calculate the precision and accuracy of the method.
# Compound Expected No. Experimental STD % %
# conc. in values mean conc. deviation CV Accuracy
# 118 (5) The mean recovery rate for the test compound (strasseriolide B) – this was calculated
# 119 to be 29 % by comparing the plasma QC peak area ratios at the established retention time […]
# mice = assay: In vivo toxicity in mice after i.v. injection; conditions: mouse, in vivo, iv, 25 mg/kg
# Protocol: as §1, §2
# Animals were observed individually at 15, 30 and 60 min after dosing and periodically during the first 24 h for any clinical signs of toxicity or mortality. The toxicity evaluation was carried out by observing behaviour parameters, including the Grimace scale parameters. The mice were sacrificed, and the main organs were examined by visual inspection during autopsy.
# [3] = system: Plasmodium falciparum strain 3D7 whole parasites; design: method as in PMID 32808790; conditions: in vitro, read-out: IC50 against Plasmodium falciparum strain 3D7; cited from earlier work
# [4] = Balb/C, Calc. Conc. in plasma, individual mice
# [5] = Balb/C, T1/2 (apparent terminal elimination half-life)
SMILES,half-life [1],Clearance Category [1],AUC 0-t/0-inf_obs ([2]; Balb/C),AUC(0-inf) ([2]; Balb/C),C0 ([2]; Balb/C),Clast_obs/Cmax ([2]; Balb/C),Cmax ([2]; Balb/C),MRT ([2]; Balb/C),MRT inf ([2]; Balb/C),Tmax ([2]; Balb/C),Vss_obs ([2]; Balb/C),Vz_obs (plasma distribution volume) ([2]; Balb/C),k el ([2]; Balb/C),"AUC(0-t) ([2]; Balb/C, AUC 0-t)","AUC(0-t) ([2]; Balb/C, AUC0−t)","concentration at 24 h ([2]; Balb/C, Ave. Conc. in plasma)","concentration at 24 h [2, 4]","concentration at 24 h ([2]; Balb/C, Plasma Conc. @T24 h)","half-life [2, 5]","half-life ([2]; Balb/C, t1/2)",further results
"C/C1=C\[C@H](C)C(=O)C[C@@H](O)/C(C)=C/[C@H](C)C[C@@H](C)CC[C@@H]([C@@H](C)C(=O)O)OC(=O)[C@@H](C)C1 [Strasseriolide C, strasseriolide C]",0.265 ± 0.0192 h,Medium,0.9595,359 ng·h/mL and 0.798 µM·h,203 ng/mL and 452 nM,0.01432,111 ng/mL and 246 nM,4.7 h,4.71 h,0.5 h,0.3281 (mg/kg)/(ng/ml),636.8 L/kg,3.04e-05 s⁻¹,345 ng·h/mL and 0.766 µM·h,0.766 µM·h,3.54 nM,2.04 ng/mL and 4.53 nM,3.5 ± 0.9 nM,6.3 h,6.34 h,"concentration at 0.5 h ([2]; Balb/C, Ave. Conc. in plasma): 246 nM; concentration at 2 h ([2]; Balb/C, Ave. Conc. in plasma): 40 nM; concentration at 6 h ([2]; Balb/C, Ave. Conc. in plasma): 24 nM; concentration at 0.5 h [2, 4]: 122 ng/mL and 271 nM; concentration at 2 h [2, 4]: 20.7 ng/mL and 46 nM; concentration at 6 h [2, 4]: 11.4 ng/mL and 23.1 nM; Cl_obs [2]: 0.06959 (mg/kg)/(ng/ml)/h; in vivo toxicity / mortality in mice (mice; Balb/C, 24 h): survived until 24 h post-i.v. injection; in vivo toxicity / mortality in mice (mice): non-toxic; IC50 [3]: 123 nM"
"C/C1=C\[C@H](C)[C@@H](O)C[C@@H](O)/C(C)=C/[C@H](C)C[C@@H](C)CC[C@@H]([C@@H](C)C(=O)O)OC(=O)[C@@H](C)C1 [Strasseriolide D, strasseriolide D]",> 1 h,Low,0.8996,5050 ng·h/mL and 11.2 µM·h,929 ng/mL and 2.06 µM,0.08582,564 ng/mL and 1.25 µM,8 h,8.02 h,1.5 h,0.03969 (mg/kg)/(ng/ml),51.9 L/kg,2.65e-05 s⁻¹,10.1 µM·h and 4550 ng·h/mL,10.1 µM·h,107 nM,49.2 ng/mL and 109 nM,107 ± 5 nM,7.3 h,7.27 h,"concentration at 1.5 h ([2]; Balb/C, Ave. Conc. in plasma): 1250 nM; concentration at 5 h ([2]; Balb/C, Ave. Conc. in plasma): 389 nM; concentration at 5 h [2, 4]: 168 ng/mL and 431 nM; Cl_obs [2]: 0.004946 (mg/kg)/(ng/ml)/h; in vivo toxicity / mortality in mice (mice; Balb/C, 24 h): survived until 24 h post-i.v. injection; in vivo toxicity / mortality in mice (mice): non-toxic; IC50 [3]: 128 nM"
